Data reported in ChEMBL document CHEMBL1201862, “PubChem BioAssay data set” (2004).
The source made the active and inactive calls. Square brackets hold non-standard residues; d marks the D form. Peptide text beside a SMILES is read from it. * marks the point of attachment. Hyp = O=C(O)[CH]1C[CH](O)CN1; Cbz = O=C(OCc1ccccc1)*; OBn = c1ccc(CO*)cc1

How the values were obtained:
[1] = biological target: Luciferin 4-monooxygenase (Photinus pyralis, UniProt P08659); test: firefly luciferase enzyme inhibitors, dose response, biochemical, luminescence (AID 1891)
Chain of Luciferin 4-monooxygenase (P08659 whole entry): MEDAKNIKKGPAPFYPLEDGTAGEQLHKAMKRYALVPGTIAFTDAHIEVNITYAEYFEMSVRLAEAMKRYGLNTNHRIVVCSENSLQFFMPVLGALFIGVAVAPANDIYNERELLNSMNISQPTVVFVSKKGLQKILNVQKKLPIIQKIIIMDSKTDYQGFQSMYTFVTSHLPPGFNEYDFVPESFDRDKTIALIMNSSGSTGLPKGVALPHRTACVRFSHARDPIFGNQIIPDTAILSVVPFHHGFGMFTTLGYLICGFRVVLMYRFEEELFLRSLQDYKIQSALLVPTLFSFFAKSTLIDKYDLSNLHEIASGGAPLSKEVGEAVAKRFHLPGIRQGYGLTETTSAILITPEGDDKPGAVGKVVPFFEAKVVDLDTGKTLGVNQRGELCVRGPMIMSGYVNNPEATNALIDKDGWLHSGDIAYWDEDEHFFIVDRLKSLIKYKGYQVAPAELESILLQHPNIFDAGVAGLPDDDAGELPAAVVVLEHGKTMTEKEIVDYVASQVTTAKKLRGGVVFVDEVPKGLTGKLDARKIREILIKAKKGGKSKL

[2] = non-specific cell cytotoxicity, dose response, cytotoxicity control for PAX8 inhibitor project, plate reader, dry powder samples (AID 743021); assay type: functional, cell-based
Fatty acid synthase [3] = biological target: T1, Fatty acid synthase (Homo sapiens, UniProt P49327); test: FAS thioesterase domain inhibitors, dose response, biochemical, kinetic fluorescence intensity (AID 624326); assay type: functional;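 also: rate of fluorescence rise from hydrolysis of a fluorogenic O-methyl fluorescein ester substrate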
T1 sequence (P49327 whole entry, the tested form may be a part): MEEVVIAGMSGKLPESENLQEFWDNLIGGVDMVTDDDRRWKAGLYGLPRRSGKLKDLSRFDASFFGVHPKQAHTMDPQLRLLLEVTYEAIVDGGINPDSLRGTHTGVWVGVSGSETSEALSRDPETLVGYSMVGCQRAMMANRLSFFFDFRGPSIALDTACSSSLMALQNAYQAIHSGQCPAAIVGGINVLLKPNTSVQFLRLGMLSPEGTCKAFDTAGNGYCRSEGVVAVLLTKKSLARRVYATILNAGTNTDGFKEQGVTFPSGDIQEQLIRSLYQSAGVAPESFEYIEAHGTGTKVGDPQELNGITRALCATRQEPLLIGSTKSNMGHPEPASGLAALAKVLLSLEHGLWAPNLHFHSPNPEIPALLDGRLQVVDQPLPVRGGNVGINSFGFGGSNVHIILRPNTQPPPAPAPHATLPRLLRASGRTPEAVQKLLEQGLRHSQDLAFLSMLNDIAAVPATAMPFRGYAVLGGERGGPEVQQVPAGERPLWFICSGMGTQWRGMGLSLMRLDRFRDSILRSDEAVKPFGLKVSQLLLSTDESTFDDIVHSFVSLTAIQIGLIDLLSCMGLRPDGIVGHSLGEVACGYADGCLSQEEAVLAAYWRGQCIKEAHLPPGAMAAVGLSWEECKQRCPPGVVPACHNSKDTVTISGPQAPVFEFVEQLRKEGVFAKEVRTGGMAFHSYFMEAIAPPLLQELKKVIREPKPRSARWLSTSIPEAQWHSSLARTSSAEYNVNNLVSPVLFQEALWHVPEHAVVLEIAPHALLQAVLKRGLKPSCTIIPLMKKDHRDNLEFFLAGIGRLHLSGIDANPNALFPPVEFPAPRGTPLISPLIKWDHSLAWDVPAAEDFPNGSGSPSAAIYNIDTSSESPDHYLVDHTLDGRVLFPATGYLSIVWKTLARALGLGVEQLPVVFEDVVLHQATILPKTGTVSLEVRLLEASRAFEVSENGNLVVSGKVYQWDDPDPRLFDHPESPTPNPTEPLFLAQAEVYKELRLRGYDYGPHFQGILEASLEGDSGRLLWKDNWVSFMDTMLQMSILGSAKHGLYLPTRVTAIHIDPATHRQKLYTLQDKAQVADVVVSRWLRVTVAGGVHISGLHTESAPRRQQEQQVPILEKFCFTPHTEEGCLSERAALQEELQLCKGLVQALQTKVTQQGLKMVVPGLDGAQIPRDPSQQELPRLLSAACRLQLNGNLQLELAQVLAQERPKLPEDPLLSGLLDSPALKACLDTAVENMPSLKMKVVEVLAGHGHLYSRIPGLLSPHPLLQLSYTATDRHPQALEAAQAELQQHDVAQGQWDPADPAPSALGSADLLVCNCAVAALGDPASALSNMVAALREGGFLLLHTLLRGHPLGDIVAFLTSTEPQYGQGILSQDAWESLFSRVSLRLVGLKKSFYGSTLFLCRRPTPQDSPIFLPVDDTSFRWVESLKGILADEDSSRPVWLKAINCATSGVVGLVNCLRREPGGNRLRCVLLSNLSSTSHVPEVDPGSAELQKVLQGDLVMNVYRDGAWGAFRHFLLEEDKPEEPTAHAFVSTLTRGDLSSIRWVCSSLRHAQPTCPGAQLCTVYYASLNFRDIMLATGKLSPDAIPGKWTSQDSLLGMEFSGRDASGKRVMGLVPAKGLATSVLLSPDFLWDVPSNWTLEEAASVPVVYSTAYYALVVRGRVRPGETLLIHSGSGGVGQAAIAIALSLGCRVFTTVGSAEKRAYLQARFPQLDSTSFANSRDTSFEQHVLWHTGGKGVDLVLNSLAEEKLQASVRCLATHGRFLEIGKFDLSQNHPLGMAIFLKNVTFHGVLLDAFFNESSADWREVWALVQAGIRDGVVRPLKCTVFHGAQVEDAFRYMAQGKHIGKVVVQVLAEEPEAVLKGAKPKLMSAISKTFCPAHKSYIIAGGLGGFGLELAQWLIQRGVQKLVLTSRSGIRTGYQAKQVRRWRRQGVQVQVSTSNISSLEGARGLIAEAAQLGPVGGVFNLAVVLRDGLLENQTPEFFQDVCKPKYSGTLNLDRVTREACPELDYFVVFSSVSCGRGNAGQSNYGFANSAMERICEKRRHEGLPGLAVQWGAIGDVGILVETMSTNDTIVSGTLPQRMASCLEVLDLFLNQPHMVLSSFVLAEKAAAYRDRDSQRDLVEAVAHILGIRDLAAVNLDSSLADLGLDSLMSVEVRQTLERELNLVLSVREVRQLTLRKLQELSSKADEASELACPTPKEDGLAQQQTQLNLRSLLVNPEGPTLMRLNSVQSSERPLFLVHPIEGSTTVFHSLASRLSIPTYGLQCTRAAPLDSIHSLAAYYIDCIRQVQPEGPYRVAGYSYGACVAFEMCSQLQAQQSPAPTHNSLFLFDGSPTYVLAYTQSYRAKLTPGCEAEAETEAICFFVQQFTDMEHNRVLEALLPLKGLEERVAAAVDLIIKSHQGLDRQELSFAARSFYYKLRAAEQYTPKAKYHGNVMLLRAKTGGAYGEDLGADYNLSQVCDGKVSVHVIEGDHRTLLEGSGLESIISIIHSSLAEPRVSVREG

HEK293 = test: inhibitors of LMP1-driven NF-kB reporter, dose response, cell-based, HEK293, luciferase, cherry-pick (AID 588343); assay type: functional; settings: Homo sapiens
BJ [4] = test: cytotoxicity toward Ras-transformed BJeLR fibroblasts, dose response, cell-based, alamar blue fluorescence, cherrypicked samples (AID 2631); assay type: functional; settings: Homo sapiens;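 also: confirmatory dose-response assay in RAS-dependent BJ fibroblasts engineered with TERT, LT and ST, with cytotoxicity read by fluorescence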
BJ [5] = test: cytotoxicity toward BJ-TERT-LT-ST fibroblasts, dose response, cell-based, RAS-independent, luminescence (AID 1935); assay type: functional; settings: Homo sapiens;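 also: BJ fibroblasts immortalized with TERT plus LT and ST oncogenes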
[6] = HepG2 cell cytotoxicity, dose response, cytotoxicity control for Shn3 inhibitor project, CellTiter-Glo, cherry-picked (AID 624134); assay type: functional, cell-based
[7] = control 3'UTR Renilla luciferase suppression, dose response, counter-screen for Shn3 inhibitor project, cell-based, Clone20-Shn3RL, cherry-picked (AID 624133); assay type: functional
BJ [8] = test: cytotoxicity toward BJ-TERT fibroblasts, dose response, cell-based, RAS-independent, luminescence (AID 1933); assay type: functional; settings: Homo sapiens
Large T antigen = Large T antigen (Simian virus 40, UniProt P03070); assay type: functional, Betapolyomavirus macacae;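 also: Confirmatory-stage PubChem screen for compounds that inhibit SV40 T antigen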
Chain of Large T antigen (P03070 whole entry): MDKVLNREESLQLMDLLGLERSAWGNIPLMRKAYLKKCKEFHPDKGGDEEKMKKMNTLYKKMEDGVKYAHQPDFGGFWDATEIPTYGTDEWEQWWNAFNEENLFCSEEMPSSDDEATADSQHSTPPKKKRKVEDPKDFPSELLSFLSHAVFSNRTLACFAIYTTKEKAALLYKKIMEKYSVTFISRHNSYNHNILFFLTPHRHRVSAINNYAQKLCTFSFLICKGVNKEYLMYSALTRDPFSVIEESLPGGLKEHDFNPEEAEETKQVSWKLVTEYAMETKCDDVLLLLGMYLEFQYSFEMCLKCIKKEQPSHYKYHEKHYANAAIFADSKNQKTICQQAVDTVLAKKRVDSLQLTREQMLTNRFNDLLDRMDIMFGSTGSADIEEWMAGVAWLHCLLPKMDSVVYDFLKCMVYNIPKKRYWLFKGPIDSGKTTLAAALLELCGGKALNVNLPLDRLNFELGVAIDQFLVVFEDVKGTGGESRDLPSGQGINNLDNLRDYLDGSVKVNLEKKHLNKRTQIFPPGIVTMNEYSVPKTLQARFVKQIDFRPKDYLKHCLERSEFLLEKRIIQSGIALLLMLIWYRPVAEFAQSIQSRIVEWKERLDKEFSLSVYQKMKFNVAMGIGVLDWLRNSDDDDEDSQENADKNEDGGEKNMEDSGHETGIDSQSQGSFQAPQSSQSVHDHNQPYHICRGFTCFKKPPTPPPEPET

[9] = tested on: Streptococcus sp. 'group A'; test: growth inhibition of control SK(-) GAS strain, dose response, counter-screen for streptokinase expression inhibitor project, luminescence, kanamycin, BacTiterGlo, confirmation (AID 1900); assay type: functional, organism-based
Streptococcus = test: Group A Streptococcus viability loss, dose response, counter-screen for streptokinase expression inhibitor project, luminescence, BacTiterGlo (AID 1915); assay type: functional, organism-based;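 also: potency for reduction of bacterial viability or growth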
Paired box protein Pax-8 = Paired box protein Pax-8 (Homo sapiens, UniProt Q06710); test: inhibitors of PAX8-driven TPO luciferase reporter, dose response, RMG-I cells, cherry-pick (AID 687027); assay type: functional, cell-based;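 also: luciferase reporter driven by Pax8 target thyroperoxidase promoter measured by SteadyGlo luminescence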
Chain of Paired box protein Pax-8 (Q06710 whole entry): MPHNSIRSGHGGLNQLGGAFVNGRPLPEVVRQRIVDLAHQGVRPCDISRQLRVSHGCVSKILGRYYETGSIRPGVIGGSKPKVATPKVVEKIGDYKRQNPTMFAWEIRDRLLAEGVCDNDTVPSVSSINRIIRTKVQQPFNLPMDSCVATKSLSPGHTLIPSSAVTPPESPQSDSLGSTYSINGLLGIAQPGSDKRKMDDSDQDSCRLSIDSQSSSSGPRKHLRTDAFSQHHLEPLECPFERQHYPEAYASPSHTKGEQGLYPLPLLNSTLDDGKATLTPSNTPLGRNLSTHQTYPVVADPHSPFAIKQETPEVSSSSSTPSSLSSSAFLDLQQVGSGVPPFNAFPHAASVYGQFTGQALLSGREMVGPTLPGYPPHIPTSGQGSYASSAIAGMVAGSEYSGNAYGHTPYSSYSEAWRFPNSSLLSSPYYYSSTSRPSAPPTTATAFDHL

[10] = Shn3 3'UTR reporter inhibitors, dose response, cell-based, Clone20 osteoblasts, firefly luciferase, cherry-picked (AID 624132); assay type: functional;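 also: firefly luciferase luminescence from reporter carrying the Shn3 3'UTR in osteoblasts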
Genome polyprotein = Genome polyprotein (dengue virus type 2, UniProt P29990); test: Dengue-2 NS5 methyltransferase inhibitors, primary screen, biochemical, confirmation dose response (AID 588689); assay type: functional
Chain of Genome polyprotein (P29990 2492-3391 limits assumed): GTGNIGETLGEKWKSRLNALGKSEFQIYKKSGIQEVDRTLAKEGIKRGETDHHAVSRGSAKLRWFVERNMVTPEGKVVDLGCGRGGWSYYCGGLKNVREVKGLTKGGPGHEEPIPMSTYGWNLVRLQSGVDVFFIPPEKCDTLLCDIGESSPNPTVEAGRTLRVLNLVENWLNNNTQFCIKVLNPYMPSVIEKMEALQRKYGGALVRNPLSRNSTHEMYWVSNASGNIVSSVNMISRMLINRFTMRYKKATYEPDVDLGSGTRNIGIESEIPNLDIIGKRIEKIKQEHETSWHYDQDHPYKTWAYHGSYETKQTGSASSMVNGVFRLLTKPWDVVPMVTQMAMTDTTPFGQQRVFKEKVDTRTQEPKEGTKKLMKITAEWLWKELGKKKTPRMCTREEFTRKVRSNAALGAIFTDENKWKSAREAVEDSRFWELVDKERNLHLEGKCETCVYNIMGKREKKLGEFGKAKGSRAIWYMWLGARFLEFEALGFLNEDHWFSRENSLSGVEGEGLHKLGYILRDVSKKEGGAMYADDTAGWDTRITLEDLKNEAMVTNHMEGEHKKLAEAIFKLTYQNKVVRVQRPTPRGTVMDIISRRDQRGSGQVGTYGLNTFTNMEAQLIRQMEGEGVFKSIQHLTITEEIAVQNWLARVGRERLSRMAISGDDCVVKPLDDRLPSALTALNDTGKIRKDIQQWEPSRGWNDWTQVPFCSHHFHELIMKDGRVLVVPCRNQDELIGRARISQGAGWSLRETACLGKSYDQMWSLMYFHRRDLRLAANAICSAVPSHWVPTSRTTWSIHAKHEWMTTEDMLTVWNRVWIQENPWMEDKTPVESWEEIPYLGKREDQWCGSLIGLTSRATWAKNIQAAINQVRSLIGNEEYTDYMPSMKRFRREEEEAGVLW

BJ [11] = test: cells; assay type: functional, cell-based; settings: Homo sapiens
Vero [12] = test: Vero cell cytotoxicity, cytotoxicity control for flavivirus capping enzyme inhibitors (AID 588742); assay type: functional; settings: Chlorocebus sabaeus
Streptokinase A = biological target: T2, Streptokinase A (Streptococcus pyogenes serotype M1, UniProt P10520); test: S. pyogenes streptokinase expression inhibitors, potency, dose response, plasminogen activation absorbance, OD405 (AID 1914); assay type: functional, Streptococcus pyogenes M1 GAS;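 also: secreted streptokinase activity via plasminogen activation per viability signal from cell pellet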
T2 sequence (P10520 whole entry): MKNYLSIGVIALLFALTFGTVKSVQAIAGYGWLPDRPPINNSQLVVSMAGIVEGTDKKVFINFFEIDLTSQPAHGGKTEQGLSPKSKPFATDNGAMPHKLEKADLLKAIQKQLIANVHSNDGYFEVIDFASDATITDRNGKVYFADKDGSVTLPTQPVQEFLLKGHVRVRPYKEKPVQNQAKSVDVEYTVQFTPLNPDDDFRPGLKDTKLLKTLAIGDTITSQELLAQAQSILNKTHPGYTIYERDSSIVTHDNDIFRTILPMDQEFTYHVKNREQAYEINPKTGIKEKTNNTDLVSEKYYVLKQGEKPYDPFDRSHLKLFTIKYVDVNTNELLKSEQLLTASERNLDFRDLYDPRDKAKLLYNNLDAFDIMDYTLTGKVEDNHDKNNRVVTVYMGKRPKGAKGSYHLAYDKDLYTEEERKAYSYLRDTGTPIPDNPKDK

[13] = Luminescence Cell-Based Dose Confirmation HTS to Identify Inhibitors of Platelet Dense Granule Release. [Related pubchem assays: 1663 (Primary HTS), 1678 (Summary of Project)]; assay type: functional
[14] = biological target: T3, High affinity choline transporter 1 (Homo sapiens, UniProt Q9GZV3); test: CHT inhibitors, dose response, cell-based, 5-point CRC, membrane potential dye (AID 504840); assay type: functional
T3 sequence (Q9GZV3 whole entry): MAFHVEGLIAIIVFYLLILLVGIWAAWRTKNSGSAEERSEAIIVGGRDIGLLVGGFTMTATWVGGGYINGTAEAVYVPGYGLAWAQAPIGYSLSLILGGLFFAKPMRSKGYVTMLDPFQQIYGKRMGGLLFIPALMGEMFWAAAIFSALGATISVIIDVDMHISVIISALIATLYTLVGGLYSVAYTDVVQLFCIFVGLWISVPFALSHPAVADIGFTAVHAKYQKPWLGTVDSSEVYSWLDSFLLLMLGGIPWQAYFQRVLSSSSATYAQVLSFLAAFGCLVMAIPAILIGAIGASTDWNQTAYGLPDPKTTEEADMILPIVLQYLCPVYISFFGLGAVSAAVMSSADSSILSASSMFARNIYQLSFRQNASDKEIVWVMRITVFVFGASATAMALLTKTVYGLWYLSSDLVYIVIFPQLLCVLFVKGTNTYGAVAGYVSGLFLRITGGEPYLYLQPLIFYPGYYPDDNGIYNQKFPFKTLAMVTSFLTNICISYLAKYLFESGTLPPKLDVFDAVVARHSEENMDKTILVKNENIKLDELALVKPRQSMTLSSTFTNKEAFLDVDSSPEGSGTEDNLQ

Fatty acid synthase [15] = biological target: T1, Fatty acid synthase; test: FAS thioesterase domain inhibitors, dose response, biochemical, endpoint fluorescence intensity, uHTS hits (AID 624327); assay type: functional;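 also: fluorescence from hydrolysis of an O-methyl fluorescein acyl ester substrate by the enzyme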
[16] = cytotoxicity toward DRD oncogenic fibroblasts, dose response, cell-based, non-viral oncogenic, luminescence (AID 1934); assay type: functional; settings: Homo sapiens
Vero [17] = test: cells; assay type: functional; settings: Chlorocebus sabaeus
[18] = biological target: T4, Sentrin-specific protease 6 (Homo sapiens, UniProt Q9GZR1); assay type: functional;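 also: Luminescence-based dose-response confirmatory assay of SENP6 inhibition, following up an ultra-high-throughput screen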
T4 sequence (Q9GZR1 whole entry): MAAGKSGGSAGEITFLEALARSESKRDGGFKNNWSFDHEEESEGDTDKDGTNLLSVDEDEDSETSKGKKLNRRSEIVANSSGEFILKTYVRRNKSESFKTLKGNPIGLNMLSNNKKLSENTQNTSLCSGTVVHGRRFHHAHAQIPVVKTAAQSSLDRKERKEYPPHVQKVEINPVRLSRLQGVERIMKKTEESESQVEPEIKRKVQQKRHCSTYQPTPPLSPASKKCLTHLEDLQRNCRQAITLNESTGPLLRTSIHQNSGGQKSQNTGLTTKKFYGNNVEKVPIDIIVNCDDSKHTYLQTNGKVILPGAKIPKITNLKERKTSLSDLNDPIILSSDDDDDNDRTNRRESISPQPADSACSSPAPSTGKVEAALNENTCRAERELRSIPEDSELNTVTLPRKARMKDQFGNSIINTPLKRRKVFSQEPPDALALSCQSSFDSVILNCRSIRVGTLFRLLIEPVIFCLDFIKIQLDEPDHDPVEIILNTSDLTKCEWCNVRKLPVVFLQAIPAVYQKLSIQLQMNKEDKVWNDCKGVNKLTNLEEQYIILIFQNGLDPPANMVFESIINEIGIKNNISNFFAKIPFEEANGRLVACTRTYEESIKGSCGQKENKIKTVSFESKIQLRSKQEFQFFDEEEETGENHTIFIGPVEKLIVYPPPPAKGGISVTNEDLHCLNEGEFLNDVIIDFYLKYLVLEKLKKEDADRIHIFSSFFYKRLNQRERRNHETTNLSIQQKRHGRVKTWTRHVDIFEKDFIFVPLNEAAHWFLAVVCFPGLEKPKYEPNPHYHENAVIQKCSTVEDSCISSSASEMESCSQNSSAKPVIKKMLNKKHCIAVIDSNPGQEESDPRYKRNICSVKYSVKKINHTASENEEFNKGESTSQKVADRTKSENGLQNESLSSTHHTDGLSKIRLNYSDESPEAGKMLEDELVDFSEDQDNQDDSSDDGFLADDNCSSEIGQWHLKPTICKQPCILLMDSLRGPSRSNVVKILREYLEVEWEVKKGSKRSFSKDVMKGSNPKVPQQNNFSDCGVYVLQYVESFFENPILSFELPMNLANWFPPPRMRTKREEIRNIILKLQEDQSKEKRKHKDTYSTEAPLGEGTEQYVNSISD

[19] = biological target: T5, Sentrin-specific protease 8 (Homo sapiens, UniProt Q96LD8); assay type: functional;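 also: luminescence read-out of SENP8 inhibition, dose-response confirmation following an ultra-high-throughput screen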
T5 sequence (Q96LD8 whole entry): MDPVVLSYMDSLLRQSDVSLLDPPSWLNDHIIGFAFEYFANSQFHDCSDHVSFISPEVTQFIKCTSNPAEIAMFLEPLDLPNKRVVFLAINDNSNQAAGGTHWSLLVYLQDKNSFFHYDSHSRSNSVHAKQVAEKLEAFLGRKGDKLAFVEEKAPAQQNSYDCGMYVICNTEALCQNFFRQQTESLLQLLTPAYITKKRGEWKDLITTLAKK

Caspase-3 = biological target: T6, Caspase-3 (Homo sapiens, UniProt P42574); assay type: functional;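 also: Dose-response selectivity test against caspase-3 for candidate inhibitors of sentrin-specific proteases (SENPs)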
T6 sequence (P42574 whole entry): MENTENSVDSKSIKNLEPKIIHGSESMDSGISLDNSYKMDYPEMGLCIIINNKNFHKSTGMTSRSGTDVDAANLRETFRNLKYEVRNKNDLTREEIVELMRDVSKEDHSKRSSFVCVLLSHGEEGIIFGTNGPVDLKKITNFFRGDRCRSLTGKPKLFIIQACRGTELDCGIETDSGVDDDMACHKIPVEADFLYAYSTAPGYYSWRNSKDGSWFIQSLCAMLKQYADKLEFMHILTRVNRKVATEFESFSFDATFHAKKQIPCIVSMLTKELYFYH

[20] = biological target: T7, Sentrin-specific protease 7 (Homo sapiens, UniProt Q9BQF6); assay type: functional;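 also: Luminescence-based dose-response confirmation of ultra-high-throughput screening hits, measuring inhibition of SENP7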
T7 sequence (Q9BQF6 whole entry): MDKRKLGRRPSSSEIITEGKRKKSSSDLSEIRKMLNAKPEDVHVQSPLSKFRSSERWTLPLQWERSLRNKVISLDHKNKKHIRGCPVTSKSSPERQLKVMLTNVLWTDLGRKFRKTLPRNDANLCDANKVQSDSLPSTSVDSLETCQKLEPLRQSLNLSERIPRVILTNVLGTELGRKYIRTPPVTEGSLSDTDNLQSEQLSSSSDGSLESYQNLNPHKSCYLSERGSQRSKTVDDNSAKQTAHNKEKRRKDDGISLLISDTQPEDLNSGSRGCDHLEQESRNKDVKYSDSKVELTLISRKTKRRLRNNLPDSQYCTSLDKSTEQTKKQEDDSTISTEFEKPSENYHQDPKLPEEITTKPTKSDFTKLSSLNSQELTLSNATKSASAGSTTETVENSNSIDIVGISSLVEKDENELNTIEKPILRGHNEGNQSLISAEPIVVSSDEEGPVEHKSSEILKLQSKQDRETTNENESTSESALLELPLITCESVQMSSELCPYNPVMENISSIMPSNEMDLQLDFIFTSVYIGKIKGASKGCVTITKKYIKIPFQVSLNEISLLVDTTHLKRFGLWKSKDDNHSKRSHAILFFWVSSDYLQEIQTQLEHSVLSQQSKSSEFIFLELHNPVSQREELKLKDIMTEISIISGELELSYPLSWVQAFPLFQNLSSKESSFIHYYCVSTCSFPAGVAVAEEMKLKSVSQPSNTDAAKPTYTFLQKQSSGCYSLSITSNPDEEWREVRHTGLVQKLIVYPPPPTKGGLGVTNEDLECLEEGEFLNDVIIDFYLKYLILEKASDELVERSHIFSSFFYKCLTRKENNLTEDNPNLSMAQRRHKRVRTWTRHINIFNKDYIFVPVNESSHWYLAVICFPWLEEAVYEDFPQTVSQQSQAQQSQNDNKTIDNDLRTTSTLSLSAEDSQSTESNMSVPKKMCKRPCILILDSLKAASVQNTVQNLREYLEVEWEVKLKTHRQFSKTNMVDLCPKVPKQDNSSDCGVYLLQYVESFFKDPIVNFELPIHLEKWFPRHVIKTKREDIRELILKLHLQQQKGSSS

O=[N+]([O-])c1c(Nc2cccc(O)c2)cc(Cl)c2nonc12
active: AC50 [2] 22.6 µM | IC50 (Fatty acid synthase [3]) 3.24 µM | AC50 (HEK293) 3.64 µM | EC50 (BJ [4]) 0.585 µM | AC50 [6] 12.5 µM | AC50 [7] 5.66 µM | EC50 (BJ [8]) 2.6 µM | IC50 (Large T antigen) 47.8 µM | EC50 [9] 7.24 µM | EC50 (Streptococcus) 10.5 µM | AC50 (Paired box protein Pax-8) 7.24 µM | AC50 [10] 0.683 µM | IC50 (Genome polyprotein) 26.2 µM | CC50 (Vero [12]) 33.7 µM | EC50 (Streptokinase A) 5.58 µM | EC50 [13] 4.14 µM | IC50 [14] 10.5 µM | IC50 (Fatty acid synthase [15]) 5.29 µM | EC50 [16] 5.13 µM
> 112 µM (not active): EC50 [1]
inconclusive: EC50 (BJ [5]) 4.25 µM | EC50 (BJ [11]) 5.62 µM

O=C(CCCN1C(=O)/C(=C/c2cccc(Br)c2)SC1=S)NCCCN1CCOCC1
active: CC50 (Vero [17]) > 25 µM | EC50 (BJ [11]) 14.7 µM | EC50 [16] 17.1 µM
inconclusive: EC50 (BJ [8]) 2.78 µM
> 150 µM (not active): EC50 (BJ [5])
inactive: EC50 (BJ [4]) > 133 µM

CC(NC(=O)CNC(=O)OCc1ccccc1)C(=O)N1CC(O)CC1C(=O)OCc1ccccc1 (stereo not drawn) (Cbz-Gly-Ala-[Hyp]-OBn; configuration not given here)
active: AC50 (HEK293) 273 µM

CCCCOC(=O)Nc1ccc2c(C)cc(=O)oc2c1
active: IC50 [18] 8.26 µM | IC50 [19] 12.7 µM | IC50 (Caspase-3) 7.45 µM | IC50 [20] 4.58 µM
